Key:
[1] = Rate of dissolution in H2O at 25° C. of rebaudioside A polymorph and amorphous forms; assay type: physicochemical
[2] = assay type: physicochemical
Description: A solution of rebaudioside A (>97% pure by HPLC ) was prepared in double distilled water (12.5 gm in 50 mL, 25% concentration) by stirring the mixture at 40° C. for 5 minutes. An amorphous form of rebaudioside A was formed by immediately using the clear solution for spray drying with the Lab-Plant spray drier SD-04 instrument (Lab-Plant Ltd., West Yorkshire, U.K.). The solution was fed through the feed pump into the nozzle atomizer which atomized it into a spray of droplets with the help of a constant flow of nitrogen/air. […] This dry powder (11-12 g, H2O6.74%) was discharged continuously from the drying chamber and was collected in a bottle.

[3] = Sensory evaluation of sweetness linger and sugar-like taste by expert panel; assay type: in vivo; design: key: 0=no sweetness linger; 1=very slight sweetness linger; 2=slight sweetness linger; 3=moderate sweetness linger; 4=moderately high sweetness linger; 5=high sweetness linger; conditions: for Sweetness Linger rating (defined for the protocol): scale anchors: sucrose, 500 ppm REBA control sample; for Sweetness linger: scale 0-5
Description: In a particular embodiment, a panel of assessors is used to measure the reduction of sweetness linger. Briefly described, a panel of assessors (generally 8 to 12 individuals) is trained to evaluate sweetness perception and measure sweetness at several time points from when the sample is initially taken into the mouth until 3 minutes after it has been expectorated. […] A decrease in score for a time point measured after the sample has cleared the mouth indicates there has been a reduction in sweetness perception.
The panel of assessors may be trained using procedures well known to those of ordinary skill in the art. In a particular embodiment, the panel of assessors may be trained using the Spectrum™ Descriptive Analysis Method (Meilgaard et al, Sensory Evaluation Techniques, 3rd edition Chapter 11). Desirably, the focus of training should be the recognition of and the measure of the basic tastes; specifically, sweet. In order to ensure accuracy and reproducibility of results, each assessor should repeat the measure of the reduction of sweetness linger about three to about five times per sample, taking at least a five minute break between each repetition and/or sample and rinsing well with water to clear the mouth.
Generally, the method of measuring sweetness comprises taking a 10 mL sample into the mouth, holding the sample in the mouth for 5 seconds and gently swirling the sample in the mouth, rating the sweetness intensity perceived at 5 seconds, expectorating the sample (without swallowing following expectorating the sample), rinsing with one mouthful of water (e.g., vigorously moving water in mouth as if with mouth wash) and expectorating the rinse water, rating the sweetness intensity perceived immediately upon expectorating the rinse water, waiting 45 seconds and, while wating those 45 seconds, identifying the time of maximum perceived sweetness intensity and rating the sweetness intensity at that time (moving the mouth normally and swallowing as needed), rating the sweetness intensity after another […], rating the sweetness intensity after another 60 seconds (cumulative 120 seconds after rinse), and rating the sweetness intensity after still another 60 seconds (cumulative 180 seconds after rinse), Between samples take a 5 minute break, rinsing well with water to clear the mouth.
Sensory evaluation of the samples prepared in Example Set G was carried out under the following protocol, similar to that described hereinabove. In this test protocol, none of the samples were swallowed. […] Immediately upon sensing maximal sweetness, the sample was expectorated, the mouth was rinsed with water and the rate of sweetness decay (“Sweetness Linger”) was measured, where attention was focused on the sweetness 3-4 min after the water rinse. […]

[4] = Sweetness stated as sucrose equivalent; assay type: in vivo

Structure (SMILES) | Rate of dissolution in H2O at 25° C. [1] | Sweetness Linger rating (defined for the protocol) [3] | also measured
C=C1C[C@@]23CC[C@H]4[C@@](C)(CCC[C@@]4(C)C(=O)O[C@@H]4O[C@H](CO)[C@@H](O)[C@H](O)[C@H]4O)[C@@H]2CC[C@]1(O[C@@H]1O[C@H](CO)[C@@H](O)[C@H](O[C@@H]2O[C@H](CO)[C@@H](O)[C@H](O)[C@H]2O)[C@H]1O[C@@H]1O[C@H](CO)[C@@H](O)[C@H](O)[C@H]1O)C3 [Form 4, rebaudioside A] | > 35 %/5 minutes |  | Solubility in water at room temperature [2]: > 35,0%
OC[C@H]1O[C@@](CO)(O[C@H]2O[C@H](CO)[C@@H](O)[C@H](O)[C@H]2O)[C@@H](O)[C@@H]1O [sucrose] |  | 0 | 
C=C1C[C@@]23CC[C@H]4[C@@](C)(CCC[C@@]4(C)C(=O)O[C@@H]4O[C@H](CO)[C@@H](O)[C@H](O)[C@H]4O)[C@@H]2CC[C@]1(O[C@@H]1O[C@H](CO)[C@@H](O)[C@H](O[C@@H]2O[C@H](CO)[C@@H](O)[C@H](O)[C@H]2O)[C@H]1O[C@@H]1O[C@H](CO)[C@@H](O)[C@H](O)[C@H]1O)C3 [Form 3, rebaudioside A] | > 30 %/5 minutes |  | 
C=C1C[C@@]23CC[C@H]4[C@@](C)(CCC[C@@]4(C)C(=O)O[C@@H]4O[C@H](CO)[C@@H](O)[C@H](O)[C@H]4O)[C@@H]2CC[C@]1(O[C@@H]1O[C@H](CO)[C@@H](O)[C@H](O[C@@H]2O[C@H](CO)[C@@H](O)[C@H](O)[C@H]2O)[C@H]1O[C@@H]1O[C@H](CO)[C@@H](O)[C@H](O)[C@H]1O)C3 [Form 1, rebaudioside A] | < 0.2 %/60 minutes |  | 
C=C1C[C@@]23CC[C@H]4[C@@](C)(CCC[C@@]4(C)C(=O)O[C@@H]4O[C@H](CO)[C@@H](O)[C@H](O)[C@H]4O)[C@@H]2CC[C@]1(O[C@@H]1O[C@H](CO)[C@@H](O)[C@H](O[C@@H]2O[C@H](CO)[C@@H](O)[C@H](O)[C@H]2O)[C@H]1O[C@@H]1O[C@H](CO)[C@@H](O)[C@H](O)[C@H]1O)C3 [Form 2, rebaudioside A] | < 30 %/5 minutes |  | 
C=C1C[C@@]23CC[C@H]4[C@@](C)(CCC[C@@]4(C)C(=O)O[C@@H]4O[C@H](CO)[C@@H](O)[C@H](O)[C@H]4O)[C@@H]2CC[C@]1(O[C@@H]1O[C@H](CO)[C@@H](O)[C@H](O[C@@H]2O[C@H](CO)[C@@H](O)[C@H](O)[C@H]2O)[C@H]1O[C@@H]1O[C@H](CO)[C@@H](O)[C@H](O)[C@H]1O)C3 [REBA, rebaudioside A] |  | 5 | Sweetness equivalent to sucrose ([4]; 180 ppm rebaudioside A in beverage diluted 1:1 with rebaudioside A/citrate composition): 5 % sucrose; Sweetness equivalent to sucrose ([4]; 400 ppm REBA in citric acid/potassium citrate composition): 8 g sucrose; Sweetness linger ([3]; Example Set G: 400 ppm REBA in citric acid/potassium citrate composition equivalent to diet lemon-lime beverage, with additive, sugar control 8 g in 100 ml citrate buffer): 5; Sweetness linger ([3]; Example Set H: 500 ppm REBA (H41: 360 ppm) in carbon-treated water, phosphoric acid (75%) to pH 2.4-2.5, with additive, sugar control 10 g in 100 ml): 5
